These compounds were tested on hIL-6 mRNA (assay: Quantification of hIL-6 mRNA in LPS-stimulated U937 macrophages (real-time PCR)). Conditions: U937 cells differentiated with PMA, 1 h pretreatment, LPS 1 μg/mL, 3 h; IL-6 mRNA normalised to hCyclophilin; compound ≤10 μM.
Assay type: cell-based, human
Set-up: key: Active: an active compound is one that causes a ≧20% inhibition in IL-6 mRNA at a concentration less than or equal to 10 μM
Description: In this example, hIL-6 mRNA in tissue culture cells was quantitated to measure the transcriptional inhibition of hIL-6 when treated with a compound of the invention.
A human leukemic monocytic lymphoma cell line (U937) was plated (3.2×10^5 cells per well) in a 96-well plate in 100 μL RPMI 1640+10% FBS, and differentiated into macrophages with PMA (60 ng/mL) for 3 days prior to the addition of the compound of interest. The cells were pretreated for 1 h with the test compound in DMSO prior to stimulation with lipopolysaccharide from Escherichia coli at 1 μg/mL. The cells were incubated for 3 h before harvest. At the time of harvest, cells were rinsed in 200 μL PBS. Cell lysis solution (70 μL) was added the cells for 10 min, and mRNA was then prepared using the “mRNA Catcher PLUS plate” (Invitrogen), according to the protocol supplied.
The eluted mRNA isolated was then used in a one-step quantitative real-time PCR reaction, using components of the UltraSense kit together with Applied Biosystems primer-probe mixes. 10 μL of template was amplified with 1.75 μL of IL-6 primer-probe, and 1 μL of hCyclophilin primer probe, and the reaction was carried out in multiplex. Real-time PCR data was analyzed, normalizing the Ct values for hIL-6 to hCyclophilin, prior to determining the fold induction of each unknown sample, relative to the control.

Row | Compound | Inhibition of IL-6 expression
1 | COc1cc(OCCN(C)C)c2c(=O)[nH]c(-c3cc(C)c(O)c(C)c3)nc2c1 [Example 1, 5-(2-dimethylamino-ethoxy)-2(4-hydroxy-3,5-dimethylphenyl)-7-methoxy-3H-quinazolin-4-one] | Active
2 | COCCOc1cc(OC)cc2nc(-c3cc(C)c(O)c(C)c3)[nH]c(=O)c12 [Example 2, 2-(4-hydroxy-3,5-dimethyl-phenyl)-7-methoxy-5-(2-methoxy-ethoxy)-3H-quinazolin-4-one] | Active
3 | COc1cc(OCCOCc2cccnc2)cc2nc(-c3cc(C)c(O)c(C)c3)[nH]c(=O)c12 [Example 6, 2-(4-hydroxy-3,5-dimethylphenyl)-5-methoxy-7-[2-(pyridin-3-ylmethoxy)ethoxy]-3H-quinazolin-4-one] | Active
4 | Cc1cc(-c2nc3ccc(Nc4ccncc4)cc3c(=O)[nH]2)cc(C)c1O [Example 8, 2-(4-hydroxy-3,5-dimethyl-phenyl)-6-(pyridin-4-ylamino)-3H-quinazolin-4-one] | Active
5 | Cc1cc(-c2nc3ccc(CNS(C)(=O)=O)cc3c(=O)[nH]2)cc(C)c1O [Example 11, N-((2-(4-hydroxy-3,5-dimethylphenyl)-4-oxo-3,4-dihydroquinazolin-6-yl)methyl)methanesulfonamide] | Active
6 | Cc1cc(-c2nc3ccc(N4CCOCC4)cc3c(=O)[nH]2)cc(C)c1OCCO [Example 12, 2-(4-(2-hydroxyethoxy)-3,5-dimethylphenyl)-6-morpholinoquinazolin-4(3H)-one] | Active
7 | COc1cc(OC)c2c(=O)[nH]c(-c3cc(C)c(OCCOCc4ccccc4)c(C)c3)nc2n1 [Example 13, 2-(4-(2-(benzyloxy)ethoxy)-3,5-dimethylphenyl)-5,7-dimethoxypyrido[2,3-d]pyrimidin-4(3H)-one] | Active
8 | Cc1cc(C)c2c(=O)[nH]c(-c3cc(C)c(OCCO)c(C)c3)nc2n1 [Example 14, 2-(4-(2-hydroxyethoxy)-3,5-dimethylphenyl)-5,7-dimethylpyrido[2,3-d]pyrimidin-4(3H)-one] | Active
9 | Cc1cc(-c2nc3cc(OC(C)C)cc(OC(C)C)c3c(=O)[nH]2)cc(C)c1OCCO [Example 16, 2-[4-(2-hydroxy-ethoxy)-3,5-dimethyl-phenyl]-5,7-diisopropoxy-3H-quinazolin-4-one] | Active
10 | COc1cc2nc(-c3cc(C)c(OCCO)c(C)c3)[nH]c(=O)c2c(OC)c1CN1CCOCC1.Cl [Example 19, 2-[4-(2-hydroxy-ethoxy)-3,5-dimethylphenyl]-5,7-dimethoxy-6-morpholin-4-ylmethyl-3H-quinazolin-4-one hydrochloride] | Active
11 | COc1cc(OCCOCc2ccccc2)cc2nc(-c3ccc4oc(CO)cc4c3)[nH]c(=O)c12 [Example 24, 7-(2-benzyloxy-ethoxy)-2-(2-hydroxymethyl-benzofuran-5-yl)-5-methoxy-3H-quinazolin-4-one] | Active
12 | COc1cc(OC)c2c(=O)[nH]c(-c3cc(C)c(OCC(=O)NCc4ccccc4)c(C)c3)nc2c1 [Example 27, N-benzyl-2-[4-(5,7-dimethoxy-4-oxo-3,4-dihydroquinazolin-2-yl)-2,6-dimethylphenoxy]acetamide] | Active
13 | COc1cc(OC)c2c(=O)[nH]c(-c3cc(C)c(OCCNC=O)c(C)c3)cc2c1 [Example 41, N-{2-[4-(6,8-dimethoxy-1-oxo-1,2-dihydro-isoquinolin-3-yl)-2,6-dimethyl-phenoxy]-ethyl}-formamide] | Active
14 | COc1cc(OC)c2c(=O)[nH]c(-c3cc(C)c(OCCNS(=O)(=O)C(C)C)c(C)c3)nc2c1 [Example 43, N-(2-(4-(5,7-dimethoxy-4-oxo-3,4-dihydroquinazolin-2-yl)-2,6-dimethylphenoxy)ethyl)propane-2-sulfonamide] | Active
15 | COc1cc(OC)c2c(=O)[nH]c(-c3ccc(OCCNC(C)=O)c(C)c3)nc2c1 [Example 45, N-(2-(4-(5,7-dimethoxy-4-oxo-3,4-dihydroquinazolin-2-yl)-2-methylphenoxy)ethyl)acetamide] | Active
16 | COc1cc(OC)c2c(=O)[nH]c(-c3cc(C)c(OCCN(C)C)c(C)c3)nc2c1 [Example 46, 2-(4-(2-(dimethylamino)ethoxy)-3,5-dimethylphenyl)-5,7-dimethoxyquinazolin-4(3H)-one] | Active
17 | COc1cc(OC)c2c(=O)[nH]c(-c3cc(C)c(OCCNC=O)c(C)c3)nc2c1 [Example 48, N-(2-(4-(5,7-dimethoxy-4-oxo-3,4-dihydroquinazolin-2-yl)-2,6-dimethylphenoxy)ethyl)formamide] | Active
18 | COc1cc(OC)c2c(=O)[nH]c(-c3cc(C)c(OCCN(C)C=O)c(C)c3)nc2c1 [Example 49, N-(2-(4-(5,7-dimethoxy-4-oxo-3,4-dihydroquinazolin-2-yl)-2,6-dimethylphenoxy)ethyl)-N-methylformamide] | Active
19 | COc1cc(OC)c2c(=O)[nH]c(-c3cc(C)c(OCCNS(=O)(=O)N(C)C)c(C)c3)nc2c1 [Example 50, N-(2-(4-(5,7-dimethoxy-4-oxo-3,4-dihydroquinazolin-2-yl)-2,6-dimethylphenoxy)ethyl)dimethylamino-N-sulfonamide] | Active
20 | COc1cc(OC)c2c(=O)[nH]c(-c3cc(C)c(OCCNc4cc(C)on4)c(C)c3)nc2c1 [Example 52, 2-(3,5-dimethyl-4-(2-(5-methylisoxazol-3-ylamino)ethoxy)phenyl)-5,7-dimethoxyquinazolin-4(3H)-one] | Active
21 | COc1cc(OC)c2c(=O)[nH]c(-c3cc(C)c(OCCNc4ncccn4)c(C)c3)nc2c1 [Example 53, 2-(3,5-dimethyl-4-(2-(pyrimidin-2-ylamino)ethoxy)phenyl)-5,7-dimethoxyquinazolin-4(3H)-one] | Active
22 | COc1cc(OC)c2c(=O)[nH]c(-c3cc(C)c(OCCNc4ccon4)c(C)c3)nc2c1 [Example 54, 2-(4-(2-(isoxazol-3-ylamino)ethoxy)-3,5-dimethylphenyl)-5,7-dimethoxyquinazolin-4(3H)-one] | Active
23 | COc1cc(OC)c2c(=O)[nH]c(-c3cc(C)c(OCCNc4nc(OC)cc(OC)n4)c(C)c3)nc2c1 [Example 55, 2-(4-(2-(4,6-dimethoxypyrimidin-2-ylamino)ethoxy)-3,5-dimethylphenyl)-5,7-dimethoxyquinazolin-4(3H)-one] | Active
24 | COc1cc(OC)c2c(=O)[nH]c(-c3cc(OC)c(CCCO)c(OC)c3)nc2c1 [Example 56, 2-[4-(3-hydroxy-propyl)-3,5-dimethoxyphenyl]-5,7-dimethoxy-3H-quinazolin-4-one] | Active
25 | COc1cc(OC)c2c(=O)[nH]c(-c3ccc(CCCO)c(OC)c3)nc2c1 [Example 57, 2-[4-(3-hydroxy-propyl)-3-methoxy-phenyl]-5,7-dimethoxy-3H-quinazolin-4-one] | Active

— US9757368B2, “Anti-inflammatory agents” (Resverlogix Corp., priority 2009, dated 2017)
